Results on five molecules are retold here after patent US12172941B2, “Organic compound and organic light-emitting device” (CANON KABUSHIKI KAISHA, priority 2020, dated 2024).

The structures appear in SMILES notation.

Type in all cases: physicochemical
Data set [1] in a line: Absolute PL quantum yield in solution (C9920-02). The settings on record: room temperature, relative value.
Data set [2] can be described thus: Photoluminescence emission spectrum of toluene solution (F-4500). The following applies: toluene solution 1×10^−5 mol/l, room temperature, excitation 350 nm. How it is done:
The measurement was performed by measuring photoluminescence with F-4500 manufactured by Hitachi, Ltd. at room temperature and at an excitation wavelength of 350 nm.

The nature of data set [3]: Difference between decomposition temperature (TG/DTA) and sublimation temperature. The settings on record: decomposition: 5% weight loss in TG/DTA; sublimation: vacuum 1×10^−1 Pa, Ar flow. An excerpt:
The decomposition temperature is a temperature at which the weight loss reaches 5% in TG/DTA measurement. […] In the toluene solubility test performed in a nitrogen atmosphere under reflux by heating while stirring, dissolution was visually inspected and was expressed as a relative value with respect to the amount of toluene (1.0) used to completely dissolve the exemplary compound A1.

In data set [1] (exemplary compound A17 = 1.00), `c1ccc(-c2cc3c4cc5c(cc4c(-c4ccccc4)cc3c3cc4c(cc23)-c2cccc3cccc-4c23)-c2cccc3c2c-5cc2ccccc23)cc1` [Exemplary compound A17] returned a Quantum yield of 1.00. In addition, the Emission wavelength max in data set [2] amounted to 449.

In turn, `c1ccc(-c2cc3c4cc5c(cc4c(-c4ccccc4)cc3c3cc4c(cc23)-c2cccc3cccc-4c23)-c2cccc3cccc-5c23)cc1` [Comparative compound (1)] showed a Quantum yield in data set [1] (exemplary compound A17 = 1.00) of 0.95. The molecule also displayed a Quantum yield in data set [1] (exemplary compound D2 = 1.00) of 0.95. In data set [2], this molecule came in with an Emission wavelength max of 449 and a λmax of 449.

With `c1ccc(-c2c3c(c(-c4ccccc4)c4c2ccc2c5cc6c(cc5ccc24)-c2cccc4cccc-6c24)-c2cc4ccccc4c4cccc-3c24)cc1` [Exemplary compound A1], in data set [3], the Decomposition temperature-sublimation temperature came out at 90 °C.

Take `Cc1ccc(-c2cc3c4cc5c(cc4c(-c4ccc(C)cc4)cc3c3cc4c(cc23)-c2cc3ccccc3c3cccc-4c23)-c2cc3ccccc3c3cccc-5c23)cc1` [Exemplary compound D2]: the Quantum yield in data set [1] (exemplary compound D2 = 1.00) was determined as 1.00. Moreover, the λmax in data set [2] is 453.

In data set [3], `c1ccc(-c2c3c(c(-c4ccccc4)c4c2ccc2c5cc6c(cc5ccc24)-c2cccc4cccc-6c24)-c2cccc4cccc-3c24)cc1` [Comparative compound (2)] returned a Decomposition temperature-sublimation temperature of 70 °C.
